The record followed here is patent publication US11786534B2 (TAIHO PHARMACEUTICAL CO., LTD., priority 2019, dated 2023).

Holding throughout (assay type): biochemical
For experiment [1], the target named is T1, human EGFR (d746-750/T790M/C797S) (Homo sapiens, UniProt P00533, C797S/DEL746-750/T790M).
T1 construct: made in house; host or cells: Sf9 insect cells, baculovirus
The experiment in a line: Inhibitory activity against EGFR (d746-750/T790M/C797S) kinase. The essentials: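 GST-fused cytoplasmic domain of human EGFR d746-750/T790M/C797S (Sf9-expressed) was incubated with 250 nM biotinylated peptide, 6 μM ATP, 10 mM MgCl2 and 10 mM MnCl2 (2.5% DMSO) for 120 min at 25 °C. After an EDTA stop, phosphotyrosine was detected by Eu-PT66/SureLight APC-SA TR-FRET (665/620 nm, excitation 337 nm). Background wells received EDTA before enzyme.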

The target of experiment [2] is T2, human EGFR (L858R/T790M/C797S) (Homo sapiens, UniProt P00533, C797S/L858R/T790M).
T2 construct: made in house; host or cells: Sf9 insect cells, baculovirus
T2 sequence (P00533 with tags, fused parts or gaps T790M/C797S/L858R): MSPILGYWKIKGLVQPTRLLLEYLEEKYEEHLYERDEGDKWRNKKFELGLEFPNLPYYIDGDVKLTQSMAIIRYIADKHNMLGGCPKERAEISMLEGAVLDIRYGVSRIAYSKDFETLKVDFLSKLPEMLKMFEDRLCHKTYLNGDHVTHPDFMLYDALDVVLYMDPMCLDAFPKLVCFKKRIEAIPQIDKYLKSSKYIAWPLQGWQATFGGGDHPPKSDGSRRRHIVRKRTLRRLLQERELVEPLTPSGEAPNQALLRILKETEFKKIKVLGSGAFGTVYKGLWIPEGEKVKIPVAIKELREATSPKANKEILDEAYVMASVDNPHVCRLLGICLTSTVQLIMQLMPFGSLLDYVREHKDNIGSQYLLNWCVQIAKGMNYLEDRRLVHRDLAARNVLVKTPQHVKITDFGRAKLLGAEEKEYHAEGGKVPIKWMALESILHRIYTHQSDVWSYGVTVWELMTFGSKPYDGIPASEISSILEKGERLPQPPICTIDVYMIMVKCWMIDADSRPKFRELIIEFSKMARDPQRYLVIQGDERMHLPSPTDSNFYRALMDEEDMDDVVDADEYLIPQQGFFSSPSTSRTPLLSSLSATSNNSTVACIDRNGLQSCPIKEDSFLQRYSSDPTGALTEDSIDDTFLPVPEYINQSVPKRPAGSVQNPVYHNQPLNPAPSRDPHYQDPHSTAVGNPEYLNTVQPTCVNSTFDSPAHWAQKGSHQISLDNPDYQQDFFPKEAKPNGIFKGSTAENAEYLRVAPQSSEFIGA
The experiment in a line: Inhibitory activity against EGFR (L858R/T790M/C797S) kinase. On the procedure:
2) Measurement of inhibitory activity against EGFR (L858R/T790M/C797S) kinase
The compounds of the presein invention were measured for their inhibitory activity against EGFR (L858R/T790M/C797S) kinase activity.
The materials, measurement procedures and data analysis method used in this test are substantially the same as those shown in the section “Measurement of inhibitory activity against EGFR (d746-750/T790M/C797S) kinase.” However, among the materials, the kinase protein (SEQ ID NO: 2) used was prepared as follows: the cytoplasmic domain of human EGFR (L858R/T790M/C797S) fused at the amino terminal end with a GST tag was expressed in insect cells (Sf9) by the baculovirus expression system and then purified on a glutathione sepharose column. In the measurement procedures, the final concentration of ATP was set to 0.5 μM. Finally, data analysis was conducted to determine the IC50 value (nM) of each compound against EGFR (L858R/T790M/C797S).
In accordance with the same procedures as shown in 2) in Test Example 1, the compounds of the present invention were measured for their inhibitory activity against EGFR (L858R/T790M/C797S) kinase activity.

In experiment [3] the target is T3, human EGFR (d746-750/C797S) (Homo sapiens, UniProt P00533, C797S/DEL746-750).
T3 construct: purchased SignalChem
T3 sequence (P00533 with tags, fused parts or gaps DEL746-750/C797S): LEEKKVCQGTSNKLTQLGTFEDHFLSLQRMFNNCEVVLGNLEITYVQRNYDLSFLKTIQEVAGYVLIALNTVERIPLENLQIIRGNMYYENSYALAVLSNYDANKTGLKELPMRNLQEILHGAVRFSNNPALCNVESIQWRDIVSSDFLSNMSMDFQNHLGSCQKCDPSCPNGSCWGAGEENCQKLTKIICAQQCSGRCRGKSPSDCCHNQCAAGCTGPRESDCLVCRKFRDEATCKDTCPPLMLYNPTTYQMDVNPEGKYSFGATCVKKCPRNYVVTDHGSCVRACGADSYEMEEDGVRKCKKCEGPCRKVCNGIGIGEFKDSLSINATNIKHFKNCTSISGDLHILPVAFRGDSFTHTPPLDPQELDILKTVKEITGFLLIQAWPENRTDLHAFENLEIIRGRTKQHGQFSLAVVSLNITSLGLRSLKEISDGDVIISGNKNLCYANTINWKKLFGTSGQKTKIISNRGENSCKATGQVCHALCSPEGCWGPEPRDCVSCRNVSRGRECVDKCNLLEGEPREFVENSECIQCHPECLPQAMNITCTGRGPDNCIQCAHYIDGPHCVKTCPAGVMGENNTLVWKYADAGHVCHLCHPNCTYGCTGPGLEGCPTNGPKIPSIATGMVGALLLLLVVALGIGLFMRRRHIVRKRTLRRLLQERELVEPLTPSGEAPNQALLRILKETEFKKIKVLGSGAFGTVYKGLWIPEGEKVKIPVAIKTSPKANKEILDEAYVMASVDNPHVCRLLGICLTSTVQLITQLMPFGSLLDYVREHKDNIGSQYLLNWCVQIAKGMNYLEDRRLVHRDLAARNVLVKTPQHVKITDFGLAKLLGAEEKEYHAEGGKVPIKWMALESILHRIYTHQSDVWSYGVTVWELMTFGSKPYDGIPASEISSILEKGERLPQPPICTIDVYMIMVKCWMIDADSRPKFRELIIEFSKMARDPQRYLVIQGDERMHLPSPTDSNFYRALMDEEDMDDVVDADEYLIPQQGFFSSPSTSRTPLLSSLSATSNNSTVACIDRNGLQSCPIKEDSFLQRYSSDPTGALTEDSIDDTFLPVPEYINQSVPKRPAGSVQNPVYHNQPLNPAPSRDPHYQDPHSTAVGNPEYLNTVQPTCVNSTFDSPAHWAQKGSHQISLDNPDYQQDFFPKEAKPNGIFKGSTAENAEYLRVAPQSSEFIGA
The experiment in a line: Inhibitory activity against EGFR (d746-750/C797S) kinase. In outline: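 Recombinant human EGFR d746-750/C797S in 13.5 mM Tris pH 7.5 with 2 mM DTT and 0.009% Tween-20. Reaction ran 60 min with 14 μM ATP, 20 mM MgCl2 and 12.5 mM MnCl2, stopped by 40 mM EDTA. IC50 in nM.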

A further experiment concerns the target T4, human EGFR (L858R/C797S) (Homo sapiens, UniProt P00533, C797S/L858R).
T4 construct: purchased SignalChem
As to the kind of experiment: Inhibitory activity against EGFR (L858R/C797S) kinase. The essentials:
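Purified recombinant human EGFR (C797S/L858R) kinase, final ATP 4 μM, 90-minute kinase reaction, otherwise per the EGFR (d746-750/C797S) protocol. IC50 (nM) determined from inhibition data.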

The next experiment addresses T5, human EGFR (WT) (Homo sapiens, UniProt P00533).
T5 construct: purchased Carna Biosciences Inc., Japan
The experiment in a line: Inhibitory activity against EGFR (WT) kinase. In outline: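 Purified recombinant human wild-type EGFR kinase, with ATP at 1.5 μM final. Compound inhibition of kinase activity read out and fitted to give IC50 (nM).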

The mark [4] stands for this setting: Test Example 1, Table 2, ATP 6 μM, 25° C., 120 minutes.
The mark [5] stands for this setting: Test Example 1, Table 3, ATP 0.5 μM.
The mark [6] stands for this setting: Test Example 1, Table 4, ATP 14 μM, 60 minutes.
[7] abbreviates: Test Example 1, Table 5, ATP 4 μM, 90 minutes.
Setting [8] is: Test Example 1, Table 6, ATP 1.5 μM.
The mark [9] stands for this setting: Test Example 3, Table 8; same procedures as 1) in Test Example 1.
Where [10] appears, read: Test Example 3, Table 9; same procedures as 2) in Test Example 1.
The mark [11] stands for this setting: Test Example 3, Table 10; same procedures as 3) in Test Example 1.
Setting [12] is: Test Example 3, Table 11; same procedures as 4) in Test Example 1.
Setting [13] is: Test Example 3, Table 12; same procedures as 5) in Test Example 1.

Molecules are shown by their SMILES.

T4 sequence (P00533 25-1210 C797S/L858R): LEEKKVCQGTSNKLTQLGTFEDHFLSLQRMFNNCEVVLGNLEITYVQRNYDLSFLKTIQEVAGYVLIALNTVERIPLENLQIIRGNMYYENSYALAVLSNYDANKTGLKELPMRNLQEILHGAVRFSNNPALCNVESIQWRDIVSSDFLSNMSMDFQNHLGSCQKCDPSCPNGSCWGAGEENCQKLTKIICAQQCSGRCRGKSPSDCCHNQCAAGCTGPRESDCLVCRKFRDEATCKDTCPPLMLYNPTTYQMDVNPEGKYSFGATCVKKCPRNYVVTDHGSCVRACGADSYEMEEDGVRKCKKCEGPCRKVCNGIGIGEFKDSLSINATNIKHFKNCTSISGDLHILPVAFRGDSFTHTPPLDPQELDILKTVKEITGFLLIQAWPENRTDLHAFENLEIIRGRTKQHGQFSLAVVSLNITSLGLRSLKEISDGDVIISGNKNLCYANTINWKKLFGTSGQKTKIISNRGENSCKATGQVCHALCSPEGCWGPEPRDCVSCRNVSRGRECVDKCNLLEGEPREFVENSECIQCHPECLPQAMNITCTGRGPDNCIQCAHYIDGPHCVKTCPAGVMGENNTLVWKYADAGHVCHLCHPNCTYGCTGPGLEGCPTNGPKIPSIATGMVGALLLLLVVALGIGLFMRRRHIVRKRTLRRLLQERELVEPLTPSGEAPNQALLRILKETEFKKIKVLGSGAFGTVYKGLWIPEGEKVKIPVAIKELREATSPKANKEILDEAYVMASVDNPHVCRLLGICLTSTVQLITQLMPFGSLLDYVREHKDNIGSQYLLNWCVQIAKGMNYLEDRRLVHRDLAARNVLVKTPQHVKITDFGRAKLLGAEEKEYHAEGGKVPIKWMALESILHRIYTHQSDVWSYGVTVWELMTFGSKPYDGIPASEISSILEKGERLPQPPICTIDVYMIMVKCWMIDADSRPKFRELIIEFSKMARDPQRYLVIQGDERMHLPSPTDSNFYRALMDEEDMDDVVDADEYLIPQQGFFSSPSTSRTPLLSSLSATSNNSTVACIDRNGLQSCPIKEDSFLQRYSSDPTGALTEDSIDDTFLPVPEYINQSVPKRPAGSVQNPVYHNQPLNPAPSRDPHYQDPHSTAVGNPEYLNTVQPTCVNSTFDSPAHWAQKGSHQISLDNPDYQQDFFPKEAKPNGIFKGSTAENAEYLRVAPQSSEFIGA
T5 sequence (P00533 25-1210): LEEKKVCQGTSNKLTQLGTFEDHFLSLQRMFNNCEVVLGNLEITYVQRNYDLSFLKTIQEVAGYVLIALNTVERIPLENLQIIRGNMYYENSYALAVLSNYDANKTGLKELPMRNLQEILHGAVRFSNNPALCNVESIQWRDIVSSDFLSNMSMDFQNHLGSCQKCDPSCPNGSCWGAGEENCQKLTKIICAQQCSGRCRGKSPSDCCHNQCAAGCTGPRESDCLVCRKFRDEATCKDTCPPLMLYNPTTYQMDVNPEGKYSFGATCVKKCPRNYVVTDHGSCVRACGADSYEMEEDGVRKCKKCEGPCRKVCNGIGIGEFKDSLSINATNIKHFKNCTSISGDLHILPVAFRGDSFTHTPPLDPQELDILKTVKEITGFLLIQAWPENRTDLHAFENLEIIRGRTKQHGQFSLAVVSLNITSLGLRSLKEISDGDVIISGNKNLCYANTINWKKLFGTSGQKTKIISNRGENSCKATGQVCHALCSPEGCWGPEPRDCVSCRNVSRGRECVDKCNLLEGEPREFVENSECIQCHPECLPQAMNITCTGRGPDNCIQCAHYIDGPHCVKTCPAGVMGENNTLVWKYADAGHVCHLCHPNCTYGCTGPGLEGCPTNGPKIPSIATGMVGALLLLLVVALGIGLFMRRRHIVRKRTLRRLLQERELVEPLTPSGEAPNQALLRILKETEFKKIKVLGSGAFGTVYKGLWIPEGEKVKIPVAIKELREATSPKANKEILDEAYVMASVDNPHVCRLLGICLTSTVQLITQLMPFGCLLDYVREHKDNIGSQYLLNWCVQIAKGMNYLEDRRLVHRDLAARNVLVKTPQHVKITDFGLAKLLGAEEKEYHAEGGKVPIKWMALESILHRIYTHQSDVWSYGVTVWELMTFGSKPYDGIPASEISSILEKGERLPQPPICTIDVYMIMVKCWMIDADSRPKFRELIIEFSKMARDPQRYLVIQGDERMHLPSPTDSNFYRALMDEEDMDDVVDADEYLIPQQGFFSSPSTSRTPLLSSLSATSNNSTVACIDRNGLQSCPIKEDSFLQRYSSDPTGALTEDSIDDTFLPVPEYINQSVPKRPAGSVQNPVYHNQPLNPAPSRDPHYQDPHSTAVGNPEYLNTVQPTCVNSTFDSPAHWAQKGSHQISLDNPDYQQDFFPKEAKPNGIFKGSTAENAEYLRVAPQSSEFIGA
T1 sequence (P00533 with tags, fused parts or gaps DEL746-750/T790M/C797S): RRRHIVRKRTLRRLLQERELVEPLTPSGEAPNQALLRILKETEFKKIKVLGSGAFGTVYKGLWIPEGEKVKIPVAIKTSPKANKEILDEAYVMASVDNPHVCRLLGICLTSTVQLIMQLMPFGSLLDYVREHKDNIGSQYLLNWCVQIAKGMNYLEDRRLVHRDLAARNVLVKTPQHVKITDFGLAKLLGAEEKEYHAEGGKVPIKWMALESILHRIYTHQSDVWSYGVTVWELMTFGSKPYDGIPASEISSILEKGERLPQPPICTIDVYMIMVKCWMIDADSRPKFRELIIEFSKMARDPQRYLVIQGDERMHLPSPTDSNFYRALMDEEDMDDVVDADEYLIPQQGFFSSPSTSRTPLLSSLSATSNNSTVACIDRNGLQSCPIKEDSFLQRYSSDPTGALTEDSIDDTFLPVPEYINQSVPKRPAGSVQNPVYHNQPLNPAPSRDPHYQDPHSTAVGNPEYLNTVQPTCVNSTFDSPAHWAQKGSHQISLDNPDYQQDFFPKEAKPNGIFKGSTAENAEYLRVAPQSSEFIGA

Regarding `C#Cc1c(-c2cnc3ccccc3c2)c2c(N)ncnc2n1C12CCC(NC(=O)c3cncc(OCF)n3)(CC1)C2` [Example 38, N-(4-(4-Amino-6-ethynyl-5-(quinolin-3-yl)-7H-pyrrolo[2,3-d]pyrimidin-7-yl)-bicyclo-[2.2.1]heptan-1-yl)-6-(fluoromethoxy)pyrazine-2-carboxamide], the IC50 was less than 0.3 nM in experiment [1] (setting [4]); 0.66 nM in experiment [2] (setting [5]); 0.56 nM in experiment [3] (setting [6]); 0.97 nM on human EGFR (L858R/C797S) (setting [7]); 1.6 nM against human EGFR (WT) (setting [8]).
Consider `C#Cc1c(-c2cnc3ccccc3c2)c2c(N)ncnc2n1C12CCC(NC(=O)c3nccn4ccnc34)(CC1)C2` [Example 42], for which the IC50 in experiment [1] (setting [4]) was less than 0.3 nM; in experiment [2] (setting [5]) it was less than 0.3 nM; in experiment [3] (setting [6]), 0.48 nM; against human EGFR (L858R/C797S) (setting [7]), 0.43 nM; at human EGFR (WT) (setting [8]), 0.31 nM.
As to `C#Cc1c(-c2cnc3ccccc3c2)c2c(N)ncnc2n1C12CCC(NC(=O)NCC)(CC1)C2` [Example 50], the half-inhibitory concentration (IC50) is less than 0.3 nM in experiment [1] (setting [4]); 0.68 nM in experiment [2] (setting [5]); 0.97 nM in experiment [3] (setting [6]); 2 nM against human EGFR (L858R/C797S) (setting [7]); 1.2 nM at human EGFR (WT) (setting [8]).
Take `C#Cc1c(-c2cnc3ccccc3c2)c2c(N)ncnc2n1C12CCC(NC(=O)c3ncccn3)(CC1)C2` [Example 51]: the IC50 in experiment [1] (setting [4]) was less than 0.3 nM; in experiment [2] (setting [5]), 0.34 nM; in experiment [3] (setting [6]), 0.83 nM; against human EGFR (L858R/C797S) (setting [7]), 0.99 nM; against human EGFR (WT) (setting [8]), 0.94 nM.
As for `C#Cc1c(-c2cnc3ccccc3c2)c2c(N)ncnc2n1C12CCC(NC(=S)NCC)(CC1)C2` [Example 52], the IC50 in experiment [1] (setting [4]) is less than 0.3 nM; in experiment [2] (setting [5]), 0.6 nM; in experiment [3] (setting [6]) it was 1.5 nM; against human EGFR (L858R/C797S) (setting [7]), 2.6 nM; on human EGFR (WT) (setting [8]) it was 0.88 nM.
`C#Cc1c(-c2cnc3ccccc3c2)c2c(N)ncnc2n1C12CCC(N(C)C(=O)c3ncco3)(CC1)C2` [Example 58, N-[4-(4-Amino-6-ethynyl-5-quinolin-3-ylpyrrolo[2,3-d]pyrimidin-7-yl)-1-bicyclo-[2.2.1]heptan-1-yl]-N-methyloxazole-2-carboxamide]: the IC50 in experiment [1] (setting [4]) is less than 0.3 nM; in experiment [2] (setting [5]) it was 1.5 nM; in experiment [3] (setting [6]) it was 2.2 nM; at human EGFR (L858R/C797S) (setting [7]) it was 3.4 nM; at human EGFR (WT) (setting [8]) it was 3.9 nM.
Regarding `C#Cc1c(-c2cnc3ccccc3c2)c2c(N)ncnc2n1C12CCC(NC(=O)OCc3cnccn3)(CC1)C2` [Example 59, Pyrazin-2-ylmethyl (4-(4-amino-6-ethynyl-5-(quinolin-3-yl)-7H-pyrrolo[2,3-d]-pyrimidin-7-yl)bicyclo[2.2.1]heptane-1-yl)carbamate], the IC50 in experiment [1] (setting [9]) turned out to be 0.37 nM; in experiment [2] (setting [10]), 0.47 nM; in experiment [3] (setting [11]), 0.83 nM; at human EGFR (L858R/C797S) (setting [12]), 1.7 nM; at human EGFR (WT) (setting [13]), 2.2 nM.
For the compound `C#Cc1c(-c2cnc3ccccc3c2)c2c(N)ncnc2n1C12CCC(NC(=O)c3cccc[n+]3[O-])(CC1)C2` [Example 60, 2-((4-(4-Amino-6-ethynyl-5-(quinolin-3-yl)-7H-pyrrolo[2,3-d]pyrimidin-7-yl)bicyclo-[2.2.1]heptane-1-yl)carbamoyl)pyridine 1-oxide], the IC50 in experiment [1] (setting [9]) was less than 0.3 nM; in experiment [2] (setting [10]), less than 0.3 nM; in experiment [3] (setting [11]), 0.3 nM; at human EGFR (L858R/C797S) (setting [12]), 0.48 nM; on human EGFR (WT) (setting [13]), 0.72 nM.
Turning to `C#Cc1c(-c2cnc3ccccc3c2)c2c(N)ncnc2n1C12CCC(NC(=O)N3CCOCC3)(CC1)C2` [Example 61, N-(4-(4-Amino-6-ethynyl-5-(quinolin-3-yl)-7H-pyrrolo[2,3-d]pyrimidin-7-yl)bicyclo-[2.2.1]heptan-1-yl)morpholine-4-carboxamide], the concentration for half-maximal inhibition (IC50) in experiment [1] (setting [9]) was less than 0.3 nM; in experiment [2] (setting [10]) it was 1.6 nM; in experiment [3] (setting [11]) it was 0.54 nM; against human EGFR (L858R/C797S) (setting [12]), 1.1 nM; at human EGFR (WT) (setting [13]), 2.7 nM.
`C#Cc1c(-c2cnc3ccccc3c2)c2c(N)ncnc2n1C12CCC(NC(=O)c3cnc4ccccn34)(CC1)C2` [Example 64, N-(4-(4-Amino-6-ethynyl-5-(quinolin-3-yl)-7H-pyrrolo[2,3-d]pyrimidin-7-yl)bicyclo-[2.2.1]heptan-1-yl)imidazo[1,2-a]pyridine-3-carboxamide]: the IC50 in experiment [1] (setting [9]) was less than 0.3 nM; in experiment [2] (setting [10]), less than 0.3 nM; in experiment [3] (setting [11]), 0.86 nM; against human EGFR (L858R/C797S) (setting [12]) it was 0.32 nM; against human EGFR (WT) (setting [13]), 0.41 nM.
As to `C#Cc1c(-c2cnc3ccccc3c2)c2c(N)ncnc2n1C12CCC(NC(=O)c3cnc4cnccn34)(CC1)C2` [Example 65], the IC50 in experiment [1] (setting [9]) is less than 0.3 nM; in experiment [2] (setting [10]) it was less than 0.3 nM; in experiment [3] (setting [11]) it was 0.4 nM; on human EGFR (L858R/C797S) (setting [12]), less than 0.3 nM; against human EGFR (WT) (setting [13]), less than 0.3 nM.
On to `C#Cc1c(-c2cnc3ccccc3c2)c2c(N)ncnc2n1C12CCC(NC(=O)c3cnc(CO)cn3)(CC1)C2` [Example 66, N-(4-(4-Amino-6-ethynyl-5-(quinolin-3-yl)-7H-pyrrolo[2,3-d]pyrimidin-7-yl)bicyclo-[2.2.1]heptan-1-yl)-5-(hydroxymethyl)pyrazine-2-carboxamide], for which the IC50 (in experiment [1] (setting [9]); in experiment [2] (setting [10]); in experiment [3] (setting [11]); on human EGFR (L858R/C797S) (setting [12]); at human EGFR (WT) (setting [13])) was less than 0.3 nM in each case.
In the case of `C#Cc1c(-c2cnc3ccccc3c2)c2c(N)ncnc2n1C12CCC(NC(=O)c3cnc(CNC)cn3)(CC1)C2` [Example 67, N-(4-(4-Amino-6-ethynyl-5-(quinolin-3-yl)-7H-pyrrolo[2,3-d]pyrimidin-7-yl)bicyclo-[2.2.1]heptan-1-yl)-5-((methylamino)methyl)pyrazine-2-carboxamide], the half-maximal inhibitory concentration (IC50) in experiment [1] (setting [9]) was less than 0.3 nM; in experiment [2] (setting [10]), less than 0.3 nM; in experiment [3] (setting [11]), 0.3 nM; against human EGFR (L858R/C797S) (setting [12]), 0.37 nM; on human EGFR (WT) (setting [13]), 0.35 nM.
On to `C#Cc1c(-c2cnc3ccccc3c2)c2c(N)ncnc2n1C12CCC(NC(=O)c3cnc(CN(C)C)cn3)(CC1)C2` [Example 68, N-(4-(4-Amino-6-ethynyl-5-(quinolin-3-yl)-7H-pyrrolo[2,3-d]pyrimidin-7-yl)bicyclo-[2.2.1]heptan-1-yl)-5-((dimethylamino)methyl)pyrazine-2-carboxamide], for which the IC50 was less than 0.3 nM in experiment [1] (setting [9]); less than 0.3 nM in experiment [2] (setting [10]); less than 0.3 nM in experiment [3] (setting [11]); 0.36 nM at human EGFR (L858R/C797S) (setting [12]); 0.43 nM against human EGFR (WT) (setting [13]).
As to `C#Cc1c(-c2cnc3ccccc3c2)c2c(N)ncnc2n1C12CCC(NC(=O)c3cnc(CN4CCOCC4)cn3)(CC1)C2` [Example 69, N-(4-(4-Amino-6-ethynyl-5-(quinolin-3-yl)-7H-pyrrolo[2,3-d]pyrimidin-7-yl)bicyclo-[2.2.1]heptan-1-yl)-5-(morpholinomethyl)pyrazine-2-carboxamide], the IC50 in experiment [1] (setting [9]) was less than 0.3 nM; in experiment [2] (setting [10]) it was less than 0.3 nM; in experiment [3] (setting [11]), less than 0.3 nM; at human EGFR (L858R/C797S) (setting [12]) it was 0.59 nM; on human EGFR (WT) (setting [13]), 0.74 nM.
As for `C#Cc1c(-c2cnc3ccccc3c2)c2c(N)ncnc2n1C12CCC(NC(=O)c3ccc(P(C)(C)=O)cn3)(CC1)C2` [Example 70, N-(4-(4-Amino-6-ethynyl-5-(quinolin-3-yl)-7H-pyrrolo[2,3-d]pyrimidin-7-yl)bicyclo-[2.2.1]heptan-1-yl)-5-(dimethylphosphoryl)picolinamide], the IC50 was less than 0.3 nM in experiment [1] (setting [9]); less than 0.3 nM in experiment [2] (setting [10]); 0.7 nM in experiment [3] (setting [11]); 1.6 nM at human EGFR (L858R/C797S) (setting [12]); 0.94 nM against human EGFR (WT) (setting [13]).

In general, IC50 refers to the concentration at which inhibition is half-maximal. A low value points to higher potency.
